# Laboratory results as given in patent US6717015B2 (priority 2002, dated 2004).
# Read-outs that look alike come from different tables or passages of the source.
# How the values were obtained:
# [1] = Water uptake / hygroscopicity on storage at 40° C. and 75% relative humidity
# [2] = Water uptake on exposure to air for 13 days
smiles,measurement,setting,value
"COc1ccc(C(CN(C)C)C2(O)CCCCC2)cc1 (racemic) [Example 4A, Venlafaxine Besylate Anhydrate]",water content after storage (K. Fischer),[1]; 3 days at 40° C. and 75% relative humidity,4%
same,hygroscopicity,[1]; listed as Anhydrous (+/−)-venlafaxine besylate,hygroscopic
"COc1ccc(C(CN(C)C)C2(O)CCCCC2)cc1 (single isomer, unassigned; (-)) [Example 5, (−)-Isomer of Venlafaxine Besylate]",hygroscopicity,[1],less hygroscopic
COc1ccc(C(CN(C)C)C2(O)CCCCC2)cc1 (racemic) [venlafaxine besylate monohydrate],uptake of water after storage,"[1]; 40° C., relative humidity 75%",No uptake of water
same,hygroscopicity,[1]; besylate monohydrate,substantially non-hygroscopic
"COc1ccc(C(CN(C)C)C2(O)CCCCC2)cc1 (single isomer, unassigned; (+)) [Example 6, (+)-Isomer of Venlafaxine Besylate]",hygroscopicity,[1],less hygroscopic
"COc1ccc(C(CN(C)C)C2(O)CCCCC2)cc1 (centres unmarked) [Example 4B, Amorphous Venlafaxine Besylate]",water present after exposure to air (Karl-Fischer),[2]; exposed to air for 13 days,1 equivalent of water
"COc1ccc(C(CN(C)C)C2(O)CCCCC2)cc1 (centres unmarked) [Example 4D, Less hydrated Venlafaxine Besylate]",water present after exposure to air (Karl-Fischer),[2]; exposed to air for 13 days at room temperature,1 molar equivalent of water
